Reference: patent US8748460B2, “Iminosugars and methods of treating togaviral diseases” (priority 2009, dated 2014)

How the values were obtained:
[1] = tested on: Venezuelan Equine Encephalitis (Togaviridae) TC-83 strain; format: cell-based, Venezuelan equine encephalitis virus; details: read-out: EC50, VEE virus inhibition
[2] = tested on: Chikungunya (Togaviridae) 181/25 strain; format: cell-based; details: read-out: EC50, Chikungunya virus inhibition
[3] = tested on: Rift Valley Fever Virus (Bunyavirus) MP12 strain; format: cell-based; details: read-out: EC50, RVFV MP12 virus inhibition

SMILES | EC50 [1] | EC50 [2] | EC50 [3] | toxicity at the highest concentration (Vero cells) | toxicity to cells at the highest concentration (Vero cells)
[N-]=[N+]=Nc1ccc(NCCCCCCN2C[C@H](O)[C@@H](O)[C@H](O)[C@H]2CO)c([N+](=O)[O-])c1 [UV-5, N—(N-{4′-azido-2′-nitrophenyl}-6-aminohexyl)deoxynojirimycin] | 2 µM | 22 µM | 49 µM | – | –
CCCOCCCCCCN1C[C@H](O)[C@@H](O)[C@H](O)[C@H]1CO [UV-3, N-(7-Oxadecyl)deoxynojirimycin] | – | – | 218 µM | – | –
CCCCCCCCCN1C[C@H](O)[C@@H](O)[C@H](O)[C@H]1CO [UV-2, N-Nonyl dexoynojirimycin] | 12 µM | 56 µM | 58 µM | toxic | toxic
CCCCN1C[C@H](O)[C@@H](O)[C@H](O)[C@H]1CO [UV-1, N-Butyl deoxynojirimycin] | 156 µM | – | – | – | –
